Reference: patent US8420130B1, “Pharmaceutical formulation of a didemnin compound” (Pharma Mar S.A., priority 1998, dated 2013)

Test: Solubility testing of aplidine
Format: physicochemical
Conditions: water
From the text: The antitumour agent aplidine (dehydrodidemnin B) is a natural occurring cyclic depsipeptide isolated from the Mediterranean runicate Aplidium albicans. Aplidine has been characterised by using several chromatographic and spectrometric techniques. […] Moreover, the long-term stability of aplidine in solution is currently unknown.

In the case of dehydrodidemnin B [aplidine], the aqueous solubility is reported as “poor aqueous solubility”.
